Reference: ChEMBL document CHEMBL1130654, “New phthalimide derivatives with potent analgesic activity: II” (1998)

Assays:
Assay type in all cases: functional
[1] = test system: Mus musculus; assay: Inhibition of acetic acid induced writhing in mice at dose of 3.12 mg/kg
[2] = test system: Mus musculus; assay: Inhibition of acetic acid induced writhing in mice at dose of 6.25 mg/kg
[3] = test system: Mus musculus; assay: Inhibition of acetic acid induced writhing in mice at dose of 1.56 mg/kg
[4] = test system: Mus musculus; assay: Compound was tested for hyperalgesia in mice induced by formalin expressed as time of licking at initial phase(up to 5 min) at dose 10 mg/kg
[5] = test system: Mus musculus; assay: Compound was tested for hyperalgesia in mice induced by formalin expressed as time of licking at late phase(up to 30 min) at dose 10 mg/kg
[6] = test system: Mus musculus; assay: Inhibition of acetic acid induced writhing in mice at dose of 100 mg/kg
[7] = test system: Mus musculus; assay: Inhibition of acetic acid induced writhing in mice at dose of 50 mg/kg
[8] = test system: Mus musculus; assay: Compound was tested for hyperalgesia in mice induced by formalin expressed as time of licking at initial phase(up to 5 min) at 400 mg/kg
[9] = test system: Mus musculus; assay: Compound was tested for hyperalgesia in mice induced by formalin expressed as time of licking at late phase(up to 30 min) at 400 mg/kg
[10] = test system: Mus musculus; assay: Inhibition of acetic acid induced writhing in mice at dose of 200 mg/kg
[11] = test system: Mus musculus; assay: Inhibition of acetic acid induced writhing in mice at dose of 12.5 mg/kg
[12] = test system: Mus musculus; assay: Inhibition of acetic acid induced writhing in mice at dose of 25 mg/kg
[13] = test system: Mus musculus; assay: Inhibition of acetic acid induced writhing in mice at dose of 25.0 mg/kg
[14] = test system: Mus musculus; assay: Compound was tested for hyperalgesia in mice induced by formalin expressed as time of licking at late phase(up to 30 min) at dose 25 mg/kg
[15] = test system: Mus musculus; assay: Compound was tested for hyperalgesia in mice induced by formalin expressed as time of licking at initial phase(up to 5 min)at dose 25 mg/kg

Row | SMILES | ID50 [1] | inhibition in vivo at 3.12 mg/kg [1] | inhibition in vivo at 6.25 mg/kg [2] | inhibition in vivo at 1.56 mg/kg [3] | inhibition in vivo at 12.5 mg/kg [11] | other results
1 | Cc1ccccc1-c1noc(CN2C(=O)c3ccccc3C2=O)n1 | 3.1 | 76.5% | 80.5% | 12.1% | – | –
2 | Cc1cccc(-c2noc(CN3C(=O)c4ccccc4C3=O)n2)c1 | 2.9 | 67.1% | 79.2% | 25.5% | – | –
3 | O=C1c2ccccc2C(=O)N1Cc1nc(-c2ccc([N+](=O)[O-])cc2)no1 | 4.1 | 47.4% | 62.9% | 29.8% | – | –
4 | CN1CC[C@]23c4c5ccc(O)c4O[C@H]2[C@@H](O)C=C[C@H]3[C@H]1C5 [MORPHINE] | – | – | – | – | – | Time of licking [4]: 41 s; Time of licking [5]: 0 s
5 | CC(=O)Oc1ccccc1C(=O)O [ASPIRIN] | – | – | – | – | – | ID50 [6]: 80.8; inhibition in vivo at 100 mg/kg [6]: 61.7%; inhibition in vivo at 50 mg/kg [7]: 38.2%; Time of licking [8]: 48 s; Time of licking [9]: 0 s; inhibition in vivo at 200 mg/kg [10]: 74%
6 | O=C1c2ccccc2C(=O)N1Cc1nc(-c2ccc(Cl)cc2)no1 | – | – | 16.3% | – | 35.1% | ID50 [11]: 20.3; inhibition in vivo at 25 mg/kg [12]: 59.6%
7 | COc1ccc(-c2noc(CN3C(=O)c4ccccc4C3=O)n2)cc1 | – | 20.7% | 41.9% | – | 53.3% | ID50 [11]: 14.9; inhibition in vivo at 25 mg/kg [13]: 62.6%
8 | Cc1ccc(-c2noc(CN3C(=O)c4ccccc4C3=O)n2)cc1 | – | 16.1% | 62.4% | – | 72.5% | ID50 [2]: 7.2
9 | O=C1c2ccccc2C(=O)N1Cc1nc(-c2ccccc2)no1 | 2.2 | 67.1% | 73.8% | 38.9% | – | Time of licking [14]: 143 s; Time of licking [15]: 84 s
